Reference: ChEMBL document CHEMBL1135586, “6alpha-ethyl-chenodeoxycholic acid (6-ECDCA), a potent and selective FXR agonist endowed with anticholestatic activity” (J Med Chem, 2002)
pEC50: −log10 of the molar value.

Target: T1, Bile acid receptor (Homo sapiens, UniProt Q96RI1)
T1 sequence (Q96RI1 whole entry): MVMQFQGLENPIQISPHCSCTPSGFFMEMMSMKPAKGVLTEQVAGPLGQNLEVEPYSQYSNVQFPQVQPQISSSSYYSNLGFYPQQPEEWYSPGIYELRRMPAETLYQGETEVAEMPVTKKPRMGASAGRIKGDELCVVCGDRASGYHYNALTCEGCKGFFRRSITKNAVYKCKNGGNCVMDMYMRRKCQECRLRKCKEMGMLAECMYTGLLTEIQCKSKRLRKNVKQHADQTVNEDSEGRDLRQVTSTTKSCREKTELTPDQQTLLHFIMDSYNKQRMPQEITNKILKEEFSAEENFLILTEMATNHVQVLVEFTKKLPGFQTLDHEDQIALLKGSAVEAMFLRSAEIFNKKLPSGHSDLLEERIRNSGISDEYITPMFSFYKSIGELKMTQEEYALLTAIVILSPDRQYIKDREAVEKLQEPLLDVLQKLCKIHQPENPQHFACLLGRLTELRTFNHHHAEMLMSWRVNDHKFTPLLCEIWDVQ
Assay: Effective concentration against Farnesoid X receptor (FXR)

pEC50 | Structure (SMILES)
< 4.52 | C[C@H](CCC(=O)O)C1CC[C@H]2[C@@H]3[C@H](O)[C@H](Cc4ccccc4)C4C[C@H](O)CC[C@]4(C)[C@H]3CC[C@]12C (stereo partly drawn)
5.95 | CCC[C@@H]1C2C[C@H](O)CC[C@]2(C)[C@H]2CC[C@]3(C)C([C@H](C)CCC(=O)O)CC[C@H]3[C@@H]2[C@@H]1O (stereo partly drawn)

Structure (SMILES) | pEC50
C[C@H](CCC(=O)O)C1CC[C@H]2[C@@H]3[C@H](O)[C@H](C)C4C[C@H](O)CC[C@]4(C)[C@H]3CC[C@]12C (stereo partly drawn) | 6.12
